Legend:
[1] = Maximum tolerated dose (MTD) study in C57BL/6 mice; assay type: in vivo, mouse; settings: i.p. dose escalation 20, 40, 80, 120 mg kg^–1 over 4 days
Method: An MTD study was conducted on male C57BL/6 mice (15–19 g, 5 weeks old, SLAC Laboratory Animal Co. Ltd.). Animals were injected via intraperitoneal (i.p.) injection with single administration at 20 mg kg^–1 (N = 18, vehicle: 100% saline at 0.6 mg mL^–1) and multiple administrations for a duration of 4 days at 20 (N = 18, day 1), 40 (N = 18, day 2), 80 (N = 18, day 3), and 120 mg kg^–1 (N = 18, day 4). Clinical observations/samples of plasma, CSF, and brain were collected at 0.25, 0.5, 1, 4, 8, and 24 h. All procedures were performed in accordance with the Ethical Guidelines on the Protection of Animals Used for Scientific Purposes at the DMPK Group at Shanghai ChemPartner Co., Ltd.

[2] = tested on: GluSph (d18:1); assay: Brain GluSph levels in 4L;C* mice (neuropathic Gaucher's disease model); assay type: in vivo, mouse
Method: 4L;C* mice (C57BL/6 J/129SvEV) were randomly assigned to three treatment groups (N = 4–8 with mixed males and females) and dosed once a day i.p. with 90 or 30 mg kg^–1 of 22m or vehicle. Treatment started at 5 days of age for a duration of 14 days. The application volume was set to 10 μL per gram of body weight, and dosage was adjusted accordingly. Animals of all groups were sacrificed 1 h after the last dose, and the brain tissues and plasma were collected. The left brain containing cortex, cerebella, thalamus, and brainstem was analyzed for SphL levels by MS. Data were analyzed using the Student t test. The right brain containing cortex, cerebella, thalamus, and brainstem and plasma were analyzed for drug levels of 22m. All mice were housed under pathogen-free conditions in the animal facility, and animal experiment was performed according to the IACUC approved protocol (2018-0056) at Cincinnati Children’s Hospital Research Foundation. Wild Type (WT) (GALC+/+) and Twitcher (Twi) (GALC–/−) mice were genotyped by PCR as previously described.[58] […] The left brain containing cortex, cerebella, thalamus, and brainstem was analyzed for SphL levels by MS. Data were analyzed using the Student t test. The right brain containing cortex, cerebella, thalamus, and brainstem and plasma were analyzed for drug levels of 22m. […]

[3] = molecular target: T1, AC (Homo sapiens, UniProt Q13510); assay: hAC LC/MS-based activity assay in SH-SY5Y cells; assay type: cell-based; set-up: host or cells: SH-SY5Y
T1 sequence (Q13510 22-395): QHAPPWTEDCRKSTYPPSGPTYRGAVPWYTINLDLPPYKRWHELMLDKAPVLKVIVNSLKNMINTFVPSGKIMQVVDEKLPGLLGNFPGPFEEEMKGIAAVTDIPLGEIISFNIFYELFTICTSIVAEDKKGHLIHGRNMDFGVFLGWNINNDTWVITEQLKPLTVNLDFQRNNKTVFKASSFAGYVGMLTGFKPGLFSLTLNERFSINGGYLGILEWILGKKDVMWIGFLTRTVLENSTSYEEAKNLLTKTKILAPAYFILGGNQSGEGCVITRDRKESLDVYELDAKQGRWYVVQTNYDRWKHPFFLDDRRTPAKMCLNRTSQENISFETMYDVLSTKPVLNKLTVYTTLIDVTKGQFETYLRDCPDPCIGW
Method: SH-SY5Y cells were purchased from Sigma Aldrich (Italy) and cultured in Dulbecco’s modified Eagle’s medium (DMEM) containing 10% fetal bovine serum at 37 °C and 5% CO2. Drugs were dissolved in DMSO (10 mM) and diluted in the cell culture medium with reduced serum (1%) for cell treatments.
hAC activity measurement was performed as previously described.[36],[37] Total lysates from cells were diluted in assay buffer (100 mM sodium phosphate, 0.1% Nonidet P-40, 150 mM NaCl, 3 mM DTT, 100 mM sodium citrate, pH 4.5). Reactions were started by the addition of 50 μM N-lauroyl ceramide (Nu-Chek Prep, Elysian, MN) and carried out for 1 h at 37 °C. Reactions were stopped by addition of a mixture of CHCl3/MeOH (2:1) containing 1 nmol of 11-lauroleic acid (Nu-Chek Prep). The organic phases were collected, dried under nitrogen, and analyzed by UPLC/MS (ACQUITY, Waters) in the negative-ion mode monitoring the reaction product (lauric acid, m/z: 199) using 11-lauroleic acid as internal standard. […] The [M–H]^− ion was monitored in the selected-ion monitoring mode (m/z values: lauric acid 199, 11-lauroleic acid 197.35). […]

CC(C)CNC(=O)n1c(=O)oc2cc(C3CCN(C)CC3)ccc21 [22m, N-Isobutyl-6-(1-methyl-4-piperidyl)-2-oxo-1,3-benzoxazole-3-carboxamide]
clinical observations in MTD study [1]: no clinical abnormalities were observed
effect on brain GluSph (d18:1) ([2]; 30 and 90 mg kg^–1 i.p. once a day for 14 days): significantly reduces GluSph (d18:1) in the brain of 4L;C* mice in a dose-dependent manner
reduction of the GluSph levels relative to control ([2]; brain, 90 mg kg^–1 i.p. once a day for 14 days): 54%
AC activity in SH-SY5Y cells ([3]; 1, 2.5, 5, 10 μM, 30 min, 1 h, 3 h, 6 h): concentration- (Figure 5A) and time-dependent reduction of AC activity
persistence of effect on AC activity inhibition and SphL ([3]; SH-SY5Y cells, 10 μM): persisted for up to 6 h
